Laboratory results: patent US8163724B2, “Glucocorticosteroids, processes for their preparation, pharmaceutical compositions containing them and their use in therapy” (AstraZeneca AB, priority 2007, dated 2012)

Target: T1, recombinant human GR (Homo sapiens, UniProt P04150)
T1 construct: purchased Panvera/Invitrogen P2812 (kit P2893)
T1 sequence (P04150 1-777): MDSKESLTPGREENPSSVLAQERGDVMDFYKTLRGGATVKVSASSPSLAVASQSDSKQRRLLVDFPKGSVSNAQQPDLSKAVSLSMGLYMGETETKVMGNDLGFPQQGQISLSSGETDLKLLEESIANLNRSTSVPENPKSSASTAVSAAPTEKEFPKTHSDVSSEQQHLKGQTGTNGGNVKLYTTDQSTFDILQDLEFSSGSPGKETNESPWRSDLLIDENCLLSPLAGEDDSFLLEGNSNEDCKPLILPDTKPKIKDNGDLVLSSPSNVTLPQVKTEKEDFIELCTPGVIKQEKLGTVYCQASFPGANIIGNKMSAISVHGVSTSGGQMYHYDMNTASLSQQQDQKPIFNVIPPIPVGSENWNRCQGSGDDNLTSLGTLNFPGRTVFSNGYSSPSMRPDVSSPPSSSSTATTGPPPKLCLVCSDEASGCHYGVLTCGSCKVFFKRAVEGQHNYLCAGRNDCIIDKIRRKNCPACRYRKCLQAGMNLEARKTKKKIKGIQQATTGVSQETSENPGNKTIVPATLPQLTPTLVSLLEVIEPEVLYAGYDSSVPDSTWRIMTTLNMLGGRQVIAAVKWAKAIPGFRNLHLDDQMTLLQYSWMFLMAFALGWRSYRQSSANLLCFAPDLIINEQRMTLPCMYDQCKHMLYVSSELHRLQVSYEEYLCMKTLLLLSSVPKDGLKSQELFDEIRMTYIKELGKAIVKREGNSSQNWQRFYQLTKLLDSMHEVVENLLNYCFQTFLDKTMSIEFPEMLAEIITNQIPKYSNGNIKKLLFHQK
Assay: Human Glucocorticoid Receptor (GR) Assay (fluorescence polarization, Panvera/Invitrogen kit)
Assay type: binding
Conditions: fluorescence polarization; GS Red tracer; 2 hours at room temperature; 100% control 10 μM Dexamethasone; read-out: Inhibition of GR binding, IC50
Description: Human Glucocorticoid Receptor (GR) Assay
The assay is based on a commercial kit from Panvera/Invitrogen (Part number P2893). The assay technology is fluorescence polarization. […] The GR and Stabilizing Peptide reagents are stored at −70° C. while the GS Red is stored at −20° C. Also included in the kit are 1M DTT (Panvera, Part number P2325, stored at −20° C.) and GR Screening buffer 10× (Panvera, Part number P2814, stored at −70° C. initially but once thawed stored at room temperature). Avoid repeated freeze/thaws for all reagents. The GR Screening buffer 10× comprises 100 mM potassium phosphate, 200 mM sodium molybdate, 1 mM EDTA and 20% DMSO.
0% control was 100% DMSO and 100% control was 10 μM Dexamethasone. Background solution (8 μL; assay buffer 10×, Stabilizing Peptide, DTT and ice cold MQ water) was added to the background wells. GS Red solution (7 μL; assay buffer 10×, Stabilizing Peptide, DTT, GS Red and ice cold water) was added to all wells except background wells. GR solution (7 μL; assay buffer 10×, Stabilizing Peptide, DTT, GR and ice cold water) was added to all wells. The plate was sealed and incubated in a dark at room temperature for 2 hours.

Row | Compound | IC50
1 | CCC(=O)O[C@]1(C(=O)SC)CC[C@H]2[C@@H]3CCC4=Cc5c(cnn5-c5ccc(F)c(C(=O)SC)c5)C[C@]4(C)[C@H]3[C@@H](O)C[C@@]21C [Example 175, (1R,3aS,3bS,10aR,10bS,11S,12aS)-7-{4-Fluoro-3-[(methylsulfanyl)carbonyl]phenyl}-11-hydroxy-10a,12a-dimethyl-1-[(methylsulfanyl)carbonyl]-1,2,3,3a,3b,4,5,7,10,10a,10b,11,12,12a-tetradecahydrocyclopenta[5,6]naphtho[1,2-f]indazol-1-yl propanoate] | 18 nM
2 | CCSC(=O)COC(=O)[C@@]1(OC(C)=O)CC[C@H]2[C@@H]3CCC4=Cc5c(cnn5-c5ccc(F)cc5)C[C@]4(C)[C@H]3[C@@H](O)C[C@@]21C [Example 121, 2-(Ethylsulfanyl)-2-oxoethyl(1R,3aS,3bS,10aR,10bS,11S,12aS)-1-(acetyloxy)-7-(4-fluorophenyl)-11-hydroxy-10a,12a-dimethyl-1,2,3,3a,3b,4,5,7,10,10a,10b,11,12,12a-tetradecahydrocyclopenta[5,6]naphtho[1,2-f]indazole-1-carboxylate] | 6.6 nM
3 | CC(=O)OCC(=O)CSC(=O)[C@@]1(OC(=O)c2ccco2)CC[C@H]2[C@@H]3CCC4=Cc5c(cnn5-c5ccc(F)cc5)C[C@]4(C)[C@H]3[C@@H](O)C[C@@]21C [Example 87, (1R,3aS,3bS,10aR,10bS,11S,12aS)-1-({[3-(Acetyloxy)-2-oxopropyl]sulfanyl}carbonyl)-7-(4-fluorophenyl)-11-hydroxy-10a,12a-dimethyl-1,2,3,3a,3b,4,5,7,10,10a,10b,11,12,12a-tetradecahydrocyclopenta[5,6]naphtho[1,2-f]indazol-1-yl furan-2-carboxylate] | 5.3 nM
4 | CCOC(=O)[C@@]1(O)CC[C@H]2[C@@H]3CCC4=Cc5c(cnn5-c5ccc(F)cc5)C[C@]4(C)[C@H]3[C@@H](O)C[C@@]21C [Example 104, Ethyl (1R,3aS,3bS,10aR,10bS,11S,12aS)-7-(4-fluorophenyl)-1,11-dihydroxy-10a,12a-dimethyl-1,2,3,3a,3b,4,5,7,10,10a,10b,11,12,12a-tetradecahydrocyclopenta[5,6]naphtho[1,2-f]indazole-1-carboxylate] | 4.2 nM
5 | C=CCOCc1cc(-n2ncc3c2C=C2CC[C@@H]4[C@H]([C@@H](O)C[C@@]5(C)[C@H]4CC[C@]5(OC(=O)c4ccco4)C(=O)NC)[C@@]2(C)C3)ccc1F [Example 78, (1R,3aS,3bS,10aR,10bS,11S,12aS)-7-{4-Fluoro-3-[(prop-2-en-1-yloxy)methyl]phenyl}-11-hydroxy-10a,12a-dimethyl-1-(methylcarbamoyl)-1,2,3,3a,3b,4,5,7,10,10a,10b,11,12,12a-tetradecahydrocyclopenta[5,6]naphtho[1,2-f]indazol-1-yl furan-2-carboxylate] | 12 nM
6 | COCSC(=O)[C@@]1(OC(=O)COC)CC[C@H]2[C@@H]3CCC4=Cc5c(cnn5-c5ccc(F)nc5)C[C@]4(C)[C@H]3[C@@H](O)C[C@@]21C [Example 158, (1R,3aS,3bS,10aR,10bS,11S,12aS)-7-(6-Fluoropyridin-3-yl)-11-hydroxy-1-{[(methoxymethyl)sulfanyl]carbonyl}-10a,12a-dimethyl-1,2,3,3a,3b,4,5,7,10,10a,10b,11,12,12a-tetradecahydrocyclopenta[5,6]naphtho[1,2-f]indazol-1-yl methoxyacetate] | 2.4 nM
7 | C[C@]12Cc3cnn(-c4cccc(C(=O)N5CCOCC5)c4)c3C=C1CC[C@@H]1[C@@H]2[C@@H](O)C[C@@]2(C)[C@H]1CC[C@]2(OC(=O)c1ccco1)C(=O)SCF [Example 100, (1R,3aS,3bS,10aR,10bS,11S,12aS)-1-{[(Fluoromethyl)thio]carbonyl}-11-hydroxy-10a,12a-dimethyl-7-[3-(morpholin-4-ylcarbonyl)phenyl]-1,2,3,3a,3b,4,5,7,10,10a,10b,11,12,12a-tetradecahydrocyclopenta[5,6]naphtho[1,2-f]indazol-1-yl furan-2-carboxylate] | 2.7 nM
8 | C[C@]12Cc3cnn(-c4cnccn4)c3C=C1CC[C@@H]1[C@@H]2[C@@H](O)C[C@@]2(C)[C@H]1CC[C@]2(OC(=O)C1CC1)C(=O)SCC#N [Example 189, (1R,3aS,3bS,10aR,10bS,11S,12aS)-1-{[(Cyanomethyl)sulfanyl]carbonyl}-11-hydroxy-10a,12a-dimethyl-7-pyrazin-2-yl-1,2,3,3a,3b,4,5,7,10,10a,10b,11,12,12a-tetradecahydrocyclopenta[5,6]naphtho[1,2-f]indazol-1-yl cyclopropanecarboxylate] | 5 nM
9 | C[C@]12Cc3cnn(-c4ccc(F)cc4)c3C=C1CC[C@@H]1[C@@H]2[C@@H](O)C[C@@]2(C)[C@H]1CC[C@]2(OC(=O)[C@H]1CCCO1)C(=O)SCC#N (single isomer, unassigned) [Example 128] | 3.8 nM
10 | C[C@]12Cc3cnn(-c4ccccn4)c3C=C1CC[C@@H]1[C@@H]2[C@@H](O)C[C@@]2(C)[C@H]1CC[C@]2(OC(=O)C1CC1)C(=O)SCF [Example 149, (1R,3aS,3bS,10aR,10bS,11S,12aS)-1-{[(Fluoromethyl)sulfanyl]carbonyl}-11-hydroxy-10a,12a-dimethyl-7-pyridin-2-yl-1,2,3,3a,3b,4,5,7,10,10a,10b,11,12,12a-tetradecahydrocyclopenta[5,6]naphtho[1,2-f]indazol-1-yl cyclopropane Carboxylate] | 5 nM
11 | C[C@]12Cc3cnn(-c4ccc(F)cc4)c3C=C1CC[C@@H]1[C@@H]2[C@@H](O)C[C@@]2(C)[C@H]1CC[C@]2(OC(=O)c1ccoc1)C(=O)SCC#N [Example 50, (1R,3aS,3bS,10aR,10bS,11S,12aS)-1-{[(Cyanomethyl)thio]carbonyl}-7-(4-fluoro-phenyl)-11-hydroxy-10a,12a-dimethyl-1,2,3,3a,3b,4,5,7,10,10a,10b,11,12,12a-tetradecahydrocyclopenta[5,6]naphtho[1,2-f]indazol-1-yl furan-3-carboxylate] | 5.8 nM
12 | COCC(=O)O[C@]1(C(=O)SCF)CC[C@H]2[C@@H]3CCC4=Cc5c(cnn5-c5ccc(F)nc5)C[C@]4(C)[C@@]3(F)[C@@H](O)C[C@@]21C [Example 206, (1R,3aS,3bS,10aS,10bR,11S,12aS)-1-{[(Fluoromethyl)sulfanyl]carbonyl}-10b-fluoro-7-(6-fluoropyridin-3-yl)-11-hydroxyl-1,2,3,3a,3b,4,5,7,10,10a,10b,11,12,12a-tetradecahydrocyclopenta[5,6]naphtho[1,2-f]indazol-1-yl methoxyacetate] | 2.5 nM
13 | Cc1ncsc1C(=O)O[C@]1(C(=O)OCC#N)CC[C@H]2[C@@H]3CCC4=Cc5c(cnn5-c5ccc(F)cc5)C[C@]4(C)[C@H]3[C@@H](O)C[C@@]21C [Example 9, Cyanomethyl(1R,3aS,3bS,10aR,10bS,11S,12aS)-7-(4-fluorophenyl)-11-hydroxy-10a,12a-dimethyl-1-{[(4-methyl-1,3-thiazol-5-yl)carbonyl]oxy}-1,2,3,3a,3b,4,5,7,10,10a,10b,11,12,12a-tetradecahydrocyclopenta[5,6]naphtho[1,2-f]indazole-1-carboxylate] | 9.4 nM
14 | CCC(=O)O[C@]1(C(=O)SCCC#N)CC[C@H]2[C@@H]3CCC4=Cc5c(cnn5-c5ccc(F)cc5)C[C@]4(C)[C@H]3[C@@H](O)C[C@@]21C [Example 16, (1R,3aS,3bS,10aR,10bS,11S,12aS)-{[(2-Cyanoethyl)thio]carbonyl}-7-(4-fluoro-phenyl)-11-hydroxy-10a,12a-dimethyl-1,2,3,3a,3b,4,5,7,10,10a,10b,11,12,12a-tetradecahydrocyclopenta[5,6]naphtho[1,2-f]indazol-1-yl propanoate] | 3.4 nM
